In patent US8357686B2, “Aryl-substituted polycyclic amines, method for the production thereof, and use thereof as a medicament” (Sanofi-Aventis Deutschland GmbH, priority 2004, dated 2013):

Tested on: female NMRI mice
Assay: Anorectic effect: cumulative condensed milk consumption in fasted mice
Format: in vivo
Details: oral dose 30 mg/kg by gavage after withdrawal of feed for 17 hours, condensed milk offered 30 minutes after administration, consumption determined for 7 hours, compared with vehicle-treated control animals
Description: The anorectic effect was tested on female NMRI mice. After withdrawal of feed for 17 hours, the test product was administered by gavage. The animals were housed singly with free access to drinking water and were offered condensed milk 30 minutes after administration of the product. The condensed milk consumption was determined every half hour for 7 hours, and the general wellbeing of the animals was observed. The measured milk consumption was compared with the vehicle-treated control animals.

SMILES | Reduction in cumulative milk consumption as % of the control
O=C(Nc1ccc(OC[C@@H]2CCCN3CCCC[C@H]23)cc1)N1CCC(c2ccc(Cl)cc2)CC1 [Example 37] | 24%
CCCCOc1ccc(C(=O)Nc2ccc(OC[C@@H]3CCCN4CCCC[C@H]34)cc2)cc1 [Example 2, 4-Butoxy-N-{4-[(1R,9aR)-1-(octahydroquinolizin-1-yl)methoxy]phenyl}-benzamide] | 73%
